Experimental data as given in patent US20110097310A1, “ANTI-AGING OR ANTIOXIDANT COMPOSITION CONTAINING PLANT STEM CELL LINE DERIVED FROM CAMBIUM OF PANAX GINSENG” (UNHWA CORPORATION, priority 2008, published 2011).

Tested on: MMP-1
Assay: Inhibition of MMP-1 expression caused by UVB radiation in NHF cells
Assay type: cell-based, human
Settings: NHF(p6), 40 mJ UVB, 48 hours, 10 uM positive control; Control UV = 230
Experimental: When MMPs are increased due to exposure to UV radiation, the increased MMPs will degrade skin collagen to form skin wrinkles. Thus, in order to examine whether MMP-1 expression that increased due to UV radiation is inhibited by the extract or culture medium of the wild ginseng cambium-derived homogeneous cell line, the following test was carried out.
NHF(p6) cells were dispensed in a 12-well plate at a density of 75,000 cells/well and starved for 24 hours. Then, the cells were radiated with 40 mJ of UVB and treated with varying concentrations of each of the samples for 48 hours. Then, an experiment was carried out using a kit (Amersham, RPN 2610). As a positive control, 10 μM retinoic acid was used.

CC1=C(/C=C/C(C)=C/C=C/C(C)=C/C(=O)O)C(C)(C)CCC1 [Retinoic acid, retinoic acid]
MMP-1 expression, % of control (No UV = 100): 85 % of control
